Assay [1] deals with Hem-A plasma. In words: dPT assay, anti-coagulant activity of NASPs in Hem-A plasma. The class given is biochemical, human. Particulars: for clotting time, dPT: Hem-A plasma without NASP 41.5 seconds; for prolongation of clotting time: concentrations>5000 nM; for inherent anticoagulant activity: concentrations up to 5000 nM. As to the method: (§1) The dPT assay used was a modified standard clinical PT assay (Nordfang et al. (1991) Thromb Haemost 66:464-467; Welsch et al. (1991) Thrombosis Research 64: 213-222). SIMPLASTIN EXCEL thromboplastin reagent (Organon Teknika) was reconstituted with the manufacturer's diluent and further diluted 1:100 in 0.9% saline. The thromboplastin reagent, 25 mM CaCl2, and plasma samples were pre-warmed to 37° C. before initiating the assay. 100 μl of thawed plasma was aliquoted into microcentrifuge tubes. […] 100 μl of the diluted thromboplastin reagent and 100 μl of 25 mM CaCl2 were added to fibrin cups (Fisher) prewarmed to 37° C. 100 μl of plasma (normal or hemophilic) containing the test agent or saline control was added to the fibrin cups containing the thromboplastin reagent and CaCl2 to initiate clotting. The time for plasma clotting was measured with a BBL FIBROSYSTEM fibrometer.
Test compounds were diluted to 100 μM, 10 μM, 2 μM and 200 nM. For each test compound, 12.5 μl of a diluted solution containing the test compound was added to 237.5 μl of Hem-A plasma and incubated at room temperature. 100 μl of plasma containing the test compound was removed for dPT assays of plasma clotting time as described in Example 2.

The subject of assay [2] is Hem-A plasma containing 1.25% FACT plasma. In words: aPTT assay, NASPs in 1.25% FACT diluted in Hem-A plasma. Format: biochemical, human. As to the method:
Activated Partial Thromboplastin Time (aPTT) Assay The aPTT assay was performed as described previously with modifications (PDR Staff Physicians' Desk Reference. 2004, Anderson Lo, Barrowcliffe, T. W., Holmer, E., Johnson, E. A., Sims, G. E. C. Thromb. Res. 1976; 9:575-580). 25 mM CaCl2 and fibrin cups (Fisher) were pre-warmed to 37° C. 0.1 ml of thawed human plasma (normal or hemophilic) was added to warmed test tubes. 5 μl of saline (e.g. Sigma) or 5 μl of test agent (e.g., NASP) dissolved in saline was incubated with 95 μl of plasma for 30 minutes at room temperature. APTT reagent (e.g. Organon Teknika) was reconstituted in 3 ml distilled water and 0.1 ml of the reconstituted solution containing the APTT reagent was added to each test tube. 0.2 ml of plasma containing the test agent or saline control and aPTT reagent were transferred from test tubes to pre-warmed fibrin cups and incubated for 2-3 minutes. 0.1 ml of pre-warmed 25 mM CaCl2 was added to initiate clotting, and the time for plasma clotting was measured with a BBL FIBROSYSTEM fibrometer.
The effect of NASPs on the clotting time of plasma was determined as follows: 5 μl of a NASP was added to 95 μl of 1.25% FACT diluted in human Hem-A plasma and incubated at room temperature for 30 minutes. aPTT assays were performed to determine plasma clotting time as described in Example 1.

In assay [3] the target is T1, TFPI (Homo sapiens, UniProt P10646).
T1 construct: purchased American Diagnostica (Stamford, Conn.)
T1 sequence (P10646 29-304): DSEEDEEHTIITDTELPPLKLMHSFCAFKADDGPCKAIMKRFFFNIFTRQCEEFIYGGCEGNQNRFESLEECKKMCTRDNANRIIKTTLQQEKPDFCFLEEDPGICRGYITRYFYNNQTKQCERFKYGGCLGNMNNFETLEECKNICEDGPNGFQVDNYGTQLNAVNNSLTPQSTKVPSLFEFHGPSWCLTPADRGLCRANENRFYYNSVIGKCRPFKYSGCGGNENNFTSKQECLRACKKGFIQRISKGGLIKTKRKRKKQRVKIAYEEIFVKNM
Description: dPT assay, inhibition of TFPI activity in Hem-A plasma, TFPI preincubated with NASP. The class given is biochemical. Particulars: for clotting time, dPT: Hem-A + TFPI, plasma alone 44, + TFPI 151 seconds; for TFPI-neutralizing activity: FIGS. 4-6 / data not shown. As to the method: as §1
(§2) Inhibition of TFPI activity by NASPs was assessed in dPT clotting assays with normal or hemophilic plasma and added recombinant TFPI. Diluted recombinant TFPI was preincubated with NASPs for 5 minutes at room temperature before plasma was added. After addition of plasma, the mixture was incubated for an additional 25 minutes followed by dPT initiation.

For assay [4], the target named is T1, TFPI. In words: dPT assay, inhibition of TFPI activity in Hem-B plasma, TFPI preincubated with NASP. The class given is biochemical. Particulars: Hem-B + TFPI, plasma alone 46, + TFPI 101 seconds. As to the method:
as §1, §2
The acceleration of plasma clotting by the NASPs in the presence of TFPI was also tested in Hem-B and normal plasma.

The target of assay [5] is T1, TFPI. In words: dPT assay, inhibition of TFPI activity in Hem-A plasma without preincubation. Format: biochemical. Particulars: Hem-A + TFPI, no preincubation, HemA + TFPI 183, alone 45 seconds. As to the method:
as §1
Experiments were repeated without a preincubation of the sulfated polysaccharides with TFPI prior to exposure to plasma. To extend the stringency of the test for NASP inhibition of TFPI activity, TFPI was added to the plasma before the NASP was added.

The subject of assay [6] is Hem-A plasma. In words: dPT assay, Hem-A plasma in absence of exogenous TFPI. The class given is biochemical, human. Particulars: dPT. As to the method:
as §1
The ability of NASPs to accelerate clotting of factor-deficient plasma in the absence of TFPI supplementation was also tested in dPT assays. A procoagulant response, if observed, may be related to neutralization of endogenous TFPI activity, which is present in human plasma at approximately 100 ng/ml (Nordfang et al., supra), largely associated with lipoprotein or platelets (Broze et al. (1992) Semin. Hematol. 29:159-169; Broze et al. (2003) J. Thromb. Haemost. 1:1671-1675).
The ability of NASPs to accelerate clotting of Hem-A plasma in the absence of exogenous TFPI was tested. Fucoidan or PPS were titrated into Hem A plasma and dPT assays were performed. Additionally, the dose-response to factor VIIa was analyzed as a positive control for amplifying extrinsic pathway activation.

“Also recorded” adds a separate entry of the source.

This is an account of results in patent US8771973B2, “Methods for treating bleeding disorders using sulfated polysaccharides” (Baxter Healthcare S.A., priority 2004, dated 2014).

Consider N-Acetyl-Heparin [NAH], for which the “clotting time, dPT” value in assay [1] (10 nM) stood at 38 s; in assay [1] (100 nM), 37 s; in assay [1] (500 nM) it was 36 s; in assay [1] (5000 nM), 38 s; in assay [3] (0.16 nM, preincubation) it was 144 s; in assay [3] (0.8 nM, preincubation), 158 s. For the same substance, the “clotting time, dPT” value stood at 160 s in assay [3] (4 nM, preincubation); 141 s in assay [3] (20 nM, preincubation); 99 s in assay [3] (100 nM, preincubation); 84 s in assay [3] (500 nM, preincubation); 102 s in assay [4] (0.16 nM); 101 s in assay [4] (0.8 nM). Besides, the “clotting time, dPT” value is 106 s in assay [4] (4 nM); 106 s in assay [4] (20 nM); 94 s in assay [4] (100 nM); 68 s in assay [4] (500 nM); 165 s in assay [5] (0.8 nM); 180 s in assay [5] (4 nM). The “clotting time, dPT” value stood at 184 s in assay [5] (20 nM), 125 s in assay [5] (100 nM) and 89 s in assay [5] (500 nM). Besides, the “prolongation of clotting time” value in assay [1] (dPT) was “little or no prolongation of clotting time”. Besides, the “clotting time, aPTT” value in assay [2] (0.8 nM) was determined as 70 s; in assay [2] (4 nM), 69 s; in assay [2] (20 nM), 67 s; in assay [2] (100 nM), 74 s; in assay [2] (500 nM) it was 85 s. For the same substance, in assay [2] (APTT, Hem-A plasma), the “concentration producing approximately 50% prolongation in clotting time, fold higher than for heparin” value is greater than 500 fold. In assay [3] (dPT), the TFPI-neutralizing activity result is on record as “only weak TFPI-neutralizing activity”. Besides, in assay [3] (dPT, preincubation), the “concentration that accelerates (shortens) clotting of Hem-A plasma containing TFPI” value is “approximately 100 nM”. The “acceleration of hemophilic plasma clotting in the absence of TFPI addition” value (“acceleration” below) in assay [6] is “had no activity; also recorded: did not accelerate hemophilic plasma clotting times”.

As to “De-N-Sulfated-Acetylated-Heparin [De-N—S-AH]”, the “clotting time, dPT” value is 39 s in assay [1] (10 nM), 37 s in assay [1] (100 nM), 40 s in assay [1] (500 nM) and 55 s in assay [1] (5000 nM). In assay [1], the inherent anticoagulant activity result is listed as “failed to show inherent anticoagulant activity”. For the same substance, the TFPI-neutralizing activity entry in assay [3] (dPT) is “did not exhibit any TFPI-neutralizing activity”. Also, the “acceleration” value in assay [6] was “failed to accelerate clotting times”.

On to Sodium Heparin, for which the entries for the “clotting time, dPT” value in assay [1] (10 nM), in assay [1] (100 nM) and in assay [1] (500 nM) were 40 s, 92 s and 400 s, respectively. For the same substance, in assay [1] (dPT, concentrations exceeding 10 nM), the anticoagulant activity result is reported as “markedly anticoagulant”. Moreover, the “clotting time, aPTT” value in assay [2] (0.8 nM) was 70 s; in assay [2] (4 nM) it was 70 s; in assay [2] (20 nM), 200 s; in assay [2] (100 nM) it was “Not clotted”; in assay [2] (500 nM), “Not clotted”. In assay [3] (dPT, not shown), the “effect on clotting time of Hem-A plasma containing TFPI” value is given as “only prolonged clotting times”.

De-N-Sulfated-Heparin [De-N-SH]: the “clotting time, dPT” value in assay [1] (10 nM) came to 40 s; in assay [1] (100 nM) it was 38 s; in assay [1] (500 nM), 38 s; in assay [1] (5000 nM) it was 41 s. In assay [1], the inherent anticoagulant activity entry is “failed to show inherent anticoagulant activity”. The “prolongation of clotting time” value in assay [1] (dPT) is given as “little or no prolongation of clotting time”. In addition, the TFPI-neutralizing activity result in assay [3] (dPT) is listed as “did not exhibit any TFPI-neutralizing activity”. Besides, the “acceleration” value in assay [6] is on record as “failed to accelerate clotting times”.

Turning to “N-Acetyl-de-O-Sulfated-Heparin [NA-de-O-SH]”, the “clotting time, dPT” value in assay [1] (10 nM), in assay [1] (100 nM), in assay [1] (500 nM) and in assay [1] (5000 nM) was 40 s throughout. Also, the inherent anticoagulant activity result in assay [1] was “failed to show inherent anticoagulant activity”. Besides, the “prolongation of clotting time” value in assay [1] (dPT) is recorded as “little or no prolongation of clotting time”. Further, in assay [3] (dPT), the TFPI-neutralizing activity entry is on record as “did not exhibit any TFPI-neutralizing activity”. Moreover, the “acceleration” value in assay [6] is on record as “failed to accelerate clotting times”.
